Measured values taken from patent US20240269128A1, “COMPOUNDS FOR TREATING OR PREVENTING ALZHEIMER'S DISEASE” (THE UNITED STATES OF AMERICA, as represented by the …, priority 2021, published 2024).

Tests used:
5xFAD mice = experiment: Plasma NfL in 5xFAD mice (NF-light ELISA); assay type: in vivo, mouse; details: compared to saline-treated transgenic mice
Procedure: HCQ nano (poly(L-lysine succinylated)-HCQ, or PLS-HCQ) preparation: 2.5 mL of saline were added to each vial of lyophilized material on each dose day and vortexed briefly to mix. Fresh vials were prepared daily. Solution was pale yellow in color and was protecedt from light. Remaining material was discardedafter animals were successfully dosed each day. […] 100 mg/kg, i.p. injection 10 μL/g b.w.
TUDCA preparation: Dissolved in saline; treatment dosage 500 mg/kg; i.p. injection 10 μL/g b.w.
Animal management: Animals were housed in individual ventilated cages on standardized rodent bedding supplied by Rettenmaier. Each cage contained a maximum of five mice. The temperature in the keeping room was maintained between 20 to 24° C. and the relative humidity was maintained between 45 to 65%. Animals were housed under a constant light-cycle (12 hours light/dark). […]
The NF-light® (Neurofilament-light) ELISA 10-7001 CE from UmanDiagnostics was used for analysis. The following samples were analyzed: terminal CSF, terminal blood plasma as well as all 4 timepoints from the in vivo bleedings from 6 animals per groups (3 groups; 18 animals, 108 samples in total). Samples were diluted (1:3 for plasma, 1:35 for CSF) in assay buffer and analyzed according to the manufacturers protocol. CSF and in vivo samples are analyzed in single replicates only, due to limited sample volume. […]

[1] = test system: hippocampal CA1 synapses of APP/PS1 mice; experiment: Late long-term potentiation, field recordings in hippocampal slices; parameters: species or system mouse; details: for impaired late-LTP: APP/PS1 slices
[2] = WT and APP/PS1 before and after HCQ

## CCN(CCO)CCCC(C)Nc1ccnc2cc(Cl)ccc12 (centres unmarked) [HCQ, hydroxychloroquine]
5xFAD mice; 100 mg/kg i.p.
  peak in plasma NfL levels: partially lowered
[1]; 25 μM HCQ sulphate, bath-applied 60 min
  impaired late-LTP: partially rescued
[1]; 50 μM HCQ sulphate
  impaired late-LTP: fully rescued
[1]; [2]
  input-output (I/O) curves: did not show any significant differences
  paired pulse ratio (PPR): did not show a significant difference
[1]; wild type mice, 50 μM HCQ, vs untreated wild type
  L-LTP in wild type slices: does not alter L-LTP

## C[C@H](CCC(=O)NCCS(=O)(=O)O)[C@H]1CC[C@H]2[C@@H]3[C@@H](O)C[C@@H]4C[C@H](O)CC[C@]4(C)[C@H]3CC[C@]12C [TUDCA, tauroursodeoxycholic acid]
5xFAD mice; 500 mg/kg i.p.
  peak plasma NfL levels: partially lowered
[1]; 100 μM TUDCA
  LTP in APP/PS1 mice: no longer induced LTP
